# Assay results from patent publication US5859333A, “Plants and processes for obtaining them” (Zeneca Limited, priority 1992, dated 1999).
# pIC50: −log10 of the molar value. Like-named read-outs stand apart in the source and are kept apart here. Where no end group is shown, it is not given here.
# What was measured:
# [1] = target: T1, Rabbit muscle SGP (Oryctolagus cuniculus, UniProt P13280); assay: Self-glucosylation activity of rabbit muscle SGP (glycogenin); assay type: biochemical; details: for inhibition of the self-glucosylating protein in rabbit muscle: act as alternative substrates
# T1 construct: from tissue; host or cells: rabbit muscle
# T1 sequence (P13280 1-333): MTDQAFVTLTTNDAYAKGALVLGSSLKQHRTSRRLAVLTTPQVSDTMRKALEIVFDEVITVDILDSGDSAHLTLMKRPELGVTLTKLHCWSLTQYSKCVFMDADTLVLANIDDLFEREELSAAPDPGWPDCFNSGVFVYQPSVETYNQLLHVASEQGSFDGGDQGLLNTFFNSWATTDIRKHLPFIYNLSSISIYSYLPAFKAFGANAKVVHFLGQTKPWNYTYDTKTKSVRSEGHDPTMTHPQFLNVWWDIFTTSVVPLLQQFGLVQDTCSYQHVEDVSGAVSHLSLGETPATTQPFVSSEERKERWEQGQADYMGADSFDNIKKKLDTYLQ
# [2] = target: T2, sweet corn SGP (Zea mays, UniProt P80607); assay: Self-glucosylating protein (SGP) assay, incorporation of 14C-glucose from UDP-[14C]glucose into TCA-precipitable protein; assay type: biochemical; details: for inhibitory effect on activity of sweet corn SGP: result in words; for stimulating effect of divalent cation on sweet corn SGP activity: concentration dependence measured, manganese at 5 mM
# T2 construct: not recombinant
# Description: The reaction was stopped by the addition of 1 ml of 10% TCA (trichloroacetic acid). After standing for 10 minutes the sample was passed through a nitrocellulose filter, type HA 0.45 uM, washed with about 3 ml 10% TCA and approximately 10 ml of water and the filter dried under an infrared lamp. Following this, the filter was placed in 4 ml of scintillation liquid (Ecolume) and measured for ^14 C radioactivity in a Searle Delta 300 6890 liquid scintillation counter.
# The radioactivity measured on the filter represents ^14 C-glucose that was incorporated into TCA-precipitable material (assuming no conversion to the glucose molecule into any other compound). […] Endogenously glucosylated SGP would not be detectable and could not be quantitated by this method.
# [3] = target: amylogenin (self-glucosylating protein, SGP) from maize (Zea mays) endosperm (Zea mays) (UniProt P80607)
# [4] = test system: proteins of molecular weight higher than SGP; details: 16 fold purified extract, 24 hr
# T2 sequence (P80607 whole entry): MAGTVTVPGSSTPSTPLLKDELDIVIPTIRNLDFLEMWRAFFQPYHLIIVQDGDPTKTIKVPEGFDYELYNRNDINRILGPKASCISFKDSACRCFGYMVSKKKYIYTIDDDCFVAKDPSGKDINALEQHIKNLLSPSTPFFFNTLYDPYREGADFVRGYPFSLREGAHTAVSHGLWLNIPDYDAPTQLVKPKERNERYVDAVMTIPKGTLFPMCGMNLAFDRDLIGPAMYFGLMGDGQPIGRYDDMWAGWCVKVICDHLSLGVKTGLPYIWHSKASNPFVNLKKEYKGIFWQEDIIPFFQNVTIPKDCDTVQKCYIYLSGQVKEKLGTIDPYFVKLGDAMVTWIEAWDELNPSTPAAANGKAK
molecule,measurement,setting,value
O=[N+]([O-])c1ccc(OC2O[C@H](CO)[C@@H](O[C@H]3O[C@H](CO)[C@@H](O[C@H]4O[C@H](CO)[C@@H](O[C@H]5O[C@H](CO)[C@@H](O)[C@H](O)[C@H]5O)[C@H](O)[C@H]4O)[C@H](O)[C@H]3O)[C@H](O)[C@H]2O)cc1 (some centres unmarked) [p-nitrophenyl- maltotetrose],inhibition of the self-glucosylating protein in rabbit muscle,[1]; result in words,inhibited
O=[N+]([O-])c1ccc(OC2O[C@H](CO)[C@@H](O[C@H]3O[C@H](CO)[C@@H](O[C@H]4O[C@H](CO)[C@@H](O)[C@H](O)[C@H]4O)[C@H](O)[C@H]3O)[C@H](O)[C@H]2O)cc1 (some centres unmarked) [p-nitrophenylmaltotriose],inhibition of the self-glucosylating protein in rabbit muscle,[1]; result in words,inhibited
N=C(N)NCCC[C@H](N)C(=O)O [arginine],inhibitory effect on activity of sweet corn SGP,[2],No effect
O=[N+]([O-])c1ccc(O[C@H]2O[C@H](CO)[C@@H](O)[C@H](O)[C@H]2O)cc1 [p-nitrophenyl-alpha-glucoside],inhibitory effect on activity of sweet corn SGP,[2],no effect
O=[N+]([O-])c1ccc(OC2O[C@H](CO)[C@@H](O[C@H]3O[C@H](CO)[C@@H](O)[C@H](O)[C@H]3O)[C@H](O)[C@H]2O)cc1 (some centres unmarked) [p-nitro-phenylmaltose],inhibition of the self-glucosylating protein in rabbit muscle,[1]; result in words,inhibited
"Nc1ncnc2c1ncn2[C@@H]1O[C@H](COP(=O)(O)OP(=O)(O)OP(=O)(O)O)[C@@H](O)[C@H]1O [ATP, adenosine triphosphate]",pIC50,[1]; read-out: concentration giving 50% inhibition of rabbit muscle SGP,2.46
same,pIC50,[2],4.00
same,inhibitory effect on activity of sweet corn SGP,[2],potent inhibitor
same,potency as inhibitor of sweet corn SGP relative to rabbit muscle SGP,[2]; sweet corn SGP vs rabbit muscle SGP,30 fold
O=[N+]([O-])c1ccc(O)cc1 [p-Nitrophenol],inhibitory effect on activity of sweet corn SGP,[2],no effect
"O=C(O)CN(CCN(CC(=O)O)CC(=O)O)CC(=O)O [EDTA, ethylene diamine tetra acetate]",sweet corn SGP activity after treatment with chelator,[2]; treated with EDTA,looses all its activity
TPCK-trypsin (enzyme),proteolysis (trypsinolysis) of SGP,[3],70%
[Mg+2] [magnesium],maximum stimulating effect on sweet corn SGP,[2]; at 10 mM concentration,about 50%
[Ca+2] [Calcium],stimulating effect of divalent cation on sweet corn SGP activity,[2],no stimulatory effect
"synthetic peptide comprising the same amino acid sequence as the glucosylated tryptic peptide T2: synthetic peptide with the sequence of tryptic peptide T2 (SEQ ID NO: 2, E G A N F V X G Y P F S L R) (EGANFVXGYPFSLR; not fully specified; X: residue not identified in the source)",inhibitory effect on activity of sweet corn SGP,[2],No effect
"[Cl][Mn][Cl] [Manganese, MnCl2]",effect on radioglucosylation of higher molecular weight proteins,[4]; 1 mM,proceeds
same,effect on radioglucosylation of higher molecular weight proteins,[4]; 5 mM,inhibited
same,stimulation of muscle SGP by divalent cation,[1]; result in words,stimulated
same,stimulating effect of divalent cation on sweet corn SGP activity,[2],most potent stimulating effect
O=[N+]([O-])c1ccc(O[C@@H]2O[C@H](CO)[C@@H](O)[C@H](O)[C@H]2O)cc1 [p-nitrophenyl-beta-glucoside],inhibitory effect on activity of sweet corn SGP,[2],no effect
